Literature values as cited in US7771758B2, “Extract of mad-dog skullcap” (Tom's of Maine, priority 2002, dated 2010).

Experiments:
[1] = tested on: benzodiazepine site of the GABAA receptor; conditions: in vitro; flavones isolated from Scutellaria baicalensis

| intestinal absorption (in vivo) | conjugation in the plasma (plasma) | SMILES | ability to bind to the benzodiazepine site of the GABAA receptor [1] | transformation by intestinal bacteria (intestinal bacteria) |
| --- | --- | --- | --- | --- |
| readily absorbed intestinally | efficiently conjugated back to baicalin | O=c1cc(-c2ccccc2)oc2cc(O)c(O)c(O)c12 [Baicalein, baicalein] | weak ligands | – |
| – | – | O=C(O)[C@H]1O[C@@H](Oc2cc3oc(-c4ccccc4)cc(=O)c3c(O)c2O)[C@H](O)[C@@H](O)[C@@H]1O [baicalin] | weak ligands | transformed to its aglycon baicalein |
| – | – | COc1c(O)cc2oc(-c3ccccc3)cc(=O)c2c1O [oroxylin A] | strong affinity | – |
| – | – | COc1c(O)cc(O)c2c(=O)cc(-c3ccccc3)oc12 [wogonin] | strong affinity | – |
